Results: article PMC12520456, “Regulating Enzyme Activity via Microaggregates Mediated by Phase Separation” (Advanced Science, 2025)
Non-standard residues stand in square brackets, D forms with d. Residues, ends and D or L forms follow the SMILES beside them.

How the values were obtained:
[1] = test system: NIH-3T3 cells; format: cell-based; details: 48 h
Description: (§1) and the product's absorbance at […] was dynamically and real-time monitored using a microplate […]
(§2) During the chymotrypsin activity assay, DPMD was incorporated into chymotrypsin. The final concentration of chymotrypsin was set at 10 μg/mL, and the final concentration of DPMD was 5 mg/mL. In the corresponding control group, an equal volume of the buffer solution prepared by the kit was added. Subsequently, the enzyme-peptide mixture was added to the reaction system containing the substrate N-Benzoyl-L-Tyrosine Ethyl Ester (BTEE) at a ratio of 1:100 (where the proportion of the enzyme-peptide mixture solution was 1) for the detection of enzyme activity. The reaction was carried out at 25 ℃, and the product's absorbance at 256 nm was dynamically and real-time monitored using a microplate reader. The experimental result was represented by the enzyme reaction's degree of completion. All the tests were repeated three independent times.
(§3) NIH-3T3 cells were obtained from the National Collection of Authenticated Cell Cultures. HUVECs were obtained from Procell. All cells were maintained in DMEM media at 37°C with 5% CO₂. […] Cell viability was evaluated by the CCK-8 assay (Dojindo) at 1-, 3-, 5-, and 7-days post-treatment. […] The absorbance at 450 nm was recorded using a microplate reader […]

[2] = test system: HUVEC; format: cell-based; details: 48 h
Description: as §1, §2, §3

[3] = Ca-binding assay; details: peptide 0.625-30 mg/mL with 3 μg/mL Ca2+, 20 mM sodium phosphate buffer pH 7.4, 37 °C 30 min; supernatant calcium by kit; four independent repeats; Figure S1C
Source text: circular dichroism spectrum and molar ellipticity (kdeg·cm2/mol) on the y-axis.
3.3 Peptide Synthesis and DPMD Preparation
All peptides were synthetized according to the optimized HBTU activation/DIEA in situ neutralization protocol developed by […] on the CS bio 336X automated peptide synthesizer. Briefly, after cleavage and deprotection in a reagent cocktail containing 88% TFA, 5% phenol, 5% H2O and 2% TIPS, crude products were precipitated with cold ether and purified to homogeneity by preparative C18 reversed-phase HPLC. The molecular masses were ascertained by electrospray ionization mass spectrometry (ESI-MS). […]
0.22μm filter to remove residue. The calcium content of the supernatant was measured using the Calcium ion detection kit (Beyotime) according to the recommended method. […]
Peptide and enzyme solutions were prepared at varying concentrations and mixed at a 1:1 volume ratio. Solution turbidity was quantitatively assessed by monitoring absorbance at 405 nm using a BioTek spectrophotometer. For fluorescence-based characterization, peptides were labeled with FITC while enzymes were labeled with Cy5. […] For fluorescence recovery after photobleaching (FRAP) analysis, enzyme-aggregated patches were selectively bleached at 60% laser power using 488/640 nm lasers for 10 s, followed by time-lapse imaging at 1-min intervals. […]

[4] = test system: Trypsin; assay: Trypsin activity assay (BAEE); format: biochemical; details: Figure 2C
Description: Then, cells were co-incubated with Cy5-labeled proteins (trypsinCy5 and chymotrypsinCy5) and DPMD treated proteins Cy5 for 30 min. Subsequently, cells were washed thrice with PBS, fixed with 4% paraformaldehyde, and the nucleus was dyed with DAPI. Observations were performed using a confocal microscope (Olympus, FV3000). This experiment was repeated three independent times. The mean fluorescence intensity was measured using Image J software. The fluorescence values were calculated after background subtraction (fluorescence intensity of regions without cells).
3.8 Measurements of ThT fluorescence
The 0.5% (w/v) aqueous peptide solutions, enzyme solutions, and peptide-enzyme mixtures were supplemented with thioflavin T (ThT, 100 μM, Aladdin). ThT Fluorescence assay was measured on a Steady-state and lifetime Fluorescence Spectrometer (FLS1000). […]
as §1
During the chymotrypsin activity assay, DPMD was incorporated into chymotrypsin. […] The reaction was carried out at 25 ℃, and the product's absorbance at 256 nm was dynamically and real-time monitored using a microplate reader. […]
NIH-3T3 cells were obtained from the National Collection of Authenticated Cell Cultures. […] Cell viability was evaluated by the CCK-8 assay (Dojindo) at 1-, 3-, 5-, and 7-days post-treatment. […]

Question: What does the source list for `CC[C@@H](C)[C@@H](NC(=O)[C@@H](CCC(N)=O)NC(=O)[C@H](NC(=O)[C@@H](Cc1ccc(O)cc1)NC(=O)CNC(=O)[C@@H](CC(C)C)NC(=O)[C@H](NC(=O)[C@@H](CO)NC(=O)CNC(=O)[C@@H](C)NC(=O)[C@@H](CC(=O)O)NC(=O)[C@@H](C)NC(=O)[C@@H](CCCNC(=N)N)NC(=O)[C@@H](C)NC(=O)[C@@H](CC(=O)O)NC(=O)[C@@H](C)NC(=O)[C@@H](CCCNC(=N)N)NC(=O)[C@@H](C)NC(=O)[C@@H](CC(=O)O)NC(=O)[C@@H](C)NC(=O)[C@@H](CCCNC(=N)N)NC(=O)[C@@H](C)NC(=O)[C@@H](CC(=O)O)NC(=O)[C@@H](C)NC(=O)[C@H](N)CCCNC(=N)N)C(C)C)[C@H](C)CC)C(=O)N[C@H](CCCNC(=N)N)C(=O)O` [DPMD, Ac‐(D‐RADA)4‐CONH2] (H-[dR][dA][dD][dA][dR][dA][dD][dA][dR][dA][dD][dA][dR][dA][dD][dA]G[dS][dV][dL]G[dY][dI][dQ][dI][dR]-OH; N-terminus and C-terminus assumed)?
Answer: cell viability [1]: > 90%; cell viability [2]: > 90%; Ca^2+ binding capacity [3]: clear binding affinity; β-sheet content: 33.9%; suppression of enzymatic activity of Trypsin [4]: almost complete extent
